Test results taken from patent US20230278972A1, “SUBSTITUTED HALOALKYL SULFONANILIDE HERBICIDES” (FMC Corporation, priority 2020, published 2023).

Columns and labels:
Type in all cases: in vivo
[1] = test system: barnyardgrass (Echinochloa crus-galli); test: Test A postemergence, barnyardgrass; settings: Postemergence, 0 to 100 scale (0 no effect, 100 complete control)
Method in brief: (§1)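 Test chemicals, formulated in a non-phytotoxic solvent mixture with surfactant, were sprayed postemergence on plants 2 to 10 cm tall at the one- to two-leaf stage. Preemergence treatment was a directed soil spray onto freshly seeded pots. Both used a loam soil and sand blend.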

[2] = test system: pigweed (Amaranthus retroflexus); test: Test A postemergence, pigweed; settings: Postemergence, 0 to 100 scale (0 no effect, 100 complete control)
Method in brief: (§2)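 Postemergence ratings come from foliar sprays onto one- to two-leaf plants of 2 to 10 cm grown in loam/sand; preemergence ratings come from a directed spray onto the soil of newly seeded pots. Formulation was a surfactant-containing non-phytotoxic solvent blend.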

[3] = test system: Foxtail, Giant (giant foxtail, Setaria faberi); test: Test A postemergence, Foxtail, Giant; settings: Postemergence, 0 to 100 scale (0 no effect, 100 complete control)
Method in brief: as §2

[4] = test system: blackgrass (Alopecurus myosuroides); test: Test A postemergence, blackgrass; settings: Postemergence, 0 to 100 scale (0 no effect, 100 complete control)
Method in brief: as §2

[5] = test system: kochia (Bassia scoparia); test: Test A preemergence, kochia; settings: Preemergence; for Plant response rating, Kochia: 0 to 100 scale (0 no effect, 100 complete control); for Kochia plant response rating: 125 g ai/ha, visual injury on 0 to 100 scale (0 no effect, 100 complete control), approximately 10 days
Method in brief: as §2

[6] = test system: corn (Zea mays); test: Test A postemergence, corn; settings: Postemergence, 0 to 100 scale (0 no effect, 100 complete control)
Method in brief: as §2

[7] = test system: galium (catchweed bedstraw, Galium aparine); test: Test A postemergence, galium; settings: Postemergence, 0 to 100 scale (0 no effect, 100 complete control)
Method in brief: as §1

[8] = test system: pigweed (Amaranthus retroflexus); test: Test A preemergence, pigweed; settings: for Plant response rating, Pigweed: 0 to 100 scale (0 no effect, 100 complete control); for Pigweed plant response rating: 125 g ai/ha, visual injury on 0 to 100 scale (0 no effect, 100 complete control), approximately 10 days
Method in brief: as §1

[9] = test system: kochia (Bassia scoparia); test: Test A postemergence, kochia; settings: Postemergence, 0 to 100 scale (0 no effect, 100 complete control)
Method in brief: as §2

[10] = test system: ragweed (common ragweed, Ambrosia artemisiifolia); test: Test A postemergence, ragweed; settings: Postemergence, 0 to 100 scale (0 no effect, 100 complete control)
Method in brief: as §2

[11] = test system: barnyardgrass (Echinochloa crus-galli); test: Test A preemergence, barnyardgrass; settings: Preemergence; for Plant response rating, Barnyardgrass: 0 to 100 scale (0 no effect, 100 complete control); for Barnyardgrass plant response rating: 125 g ai/ha, visual injury on 0 to 100 scale (0 no effect, 100 complete control), approximately 10 days
Method in brief: as §2

[12] = test system: Ryegrass, Italian (Italian ryegrass, Lolium multiflorum); test: Test A postemergence, Ryegrass, Italian; settings: Postemergence, 0 to 100 scale (0 no effect, 100 complete control)
Method in brief: as §2

[13] = test system: wheat (Triticum aestivum); test: Test A postemergence, wheat; settings: Postemergence, 0 to 100 scale (0 no effect, 100 complete control)
Method in brief: as §1

[14] = test system: ragweed (common ragweed, Ambrosia artemisiifolia); test: Test A preemergence, ragweed; settings: Preemergence; for Plant response rating, Ragweed: 0 to 100 scale (0 no effect, 100 complete control); for Ragweed plant response rating: 125 g ai/ha, visual injury on 0 to 100 scale (0 no effect, 100 complete control), approximately 10 days
Method in brief: as §2

[15] = test system: Ryegrass, Italian (Italian ryegrass, Lolium multiflorum); test: Test A preemergence, Ryegrass, Italian; settings: Preemergence; for Plant response rating, Ryegrass, Italian: 0 to 100 scale (0 no effect, 100 complete control); for Ryegrass, Italian plant response rating: 125 g ai/ha, visual injury on 0 to 100 scale (0 no effect, 100 complete control), approximately 10 days
Method in brief: as §2

[16] = test system: Foxtail, Giant (giant foxtail, Setaria faberi); test: Test A preemergence, Foxtail, Giant; settings: Preemergence; for Plant response rating, Foxtail, Giant: 0 to 100 scale (0 no effect, 100 complete control); for Foxtail, Giant plant response rating: 125 g ai/ha, visual injury on 0 to 100 scale (0 no effect, 100 complete control), approximately 10 days
Method in brief: as §2

[17] = 1000 g ai/ha, visual injury, approx. 10 days
[18] = 125 g ai/ha, visual injury approx. 10 days
[19] = 500 g ai/ha, visual injury, approx. 10 days

Row | SMILES | Plant response rating, Barnyardgrass [1, 18] | Plant response rating, Barnyardgrass [1, 19] | Plant response rating, Pigweed [2, 18] | Plant response rating, Pigweed [2, 19] | Plant response rating, Foxtail, Giant [3, 18] | Plant response rating, Foxtail, Giant [3, 19] | Plant response rating, Blackgrass [4, 18] | Plant response rating, Blackgrass [4, 19] | Kochia plant response rating [5] | Plant response rating, Kochia ([5]; 500 g ai/ha) | Plant response rating, Corn [6, 18] | Plant response rating, Corn [6, 19] | Plant response rating, Galium [7, 18] | Plant response rating, Galium [7, 19] | Pigweed plant response rating [8] | Plant response rating, Pigweed ([8]; 500 g ai/ha) | Plant response rating, Kochia [9, 18] | Plant response rating, Kochia [9, 19] | Plant response rating, Ragweed [10, 18] | Plant response rating, Ragweed [10, 19] | further results
1 | COC1CCN(C(=O)c2cc(NS(=O)(=O)C(F)(F)F)c(C)cc2C)CC1 [Compound 19] | – | – | – | – | – | – | – | – | – | – | – | – | – | – | – | – | – | – | – | – | Plant response rating, Barnyardgrass [1, 17]: 80; Plant response rating, Pigweed [2, 17]: 80; Plant response rating, Foxtail, Giant [3, 17]: 90; Plant response rating, Blackgrass [4, 17]: 60; Plant response rating, Kochia ([5]; 1000 g ai/ha): 90; Plant response rating, Corn [6, 17]: 50; Plant response rating, Galium [7, 17]: 40; Plant response rating, Pigweed ([8]; 1000 g ai/ha): 100; Plant response rating, Kochia [9, 17]: 70; Plant response rating, Ragweed [10, 17]: 80; Plant response rating, Barnyardgrass ([11]; 1000 g ai/ha): 100; Plant response rating, Ryegrass, Italian [12, 17]: 50; Plant response rating, Wheat [13, 17]: 50; Plant response rating, Ragweed ([14]; 1000 g ai/ha): 90; Plant response rating, Ryegrass, Italian ([15]; 1000 g ai/ha): 90; Plant response rating, Foxtail, Giant ([16]; 1000 g ai/ha): 100
2 | Cc1cc(Cl)c(NS(=O)(=O)C(F)(F)F)cc1C(=O)N1CC(C)OC(C)C1 (stereo not drawn) [Compound 20] | 60 | 80 | 30 | 80 | 60 | 90 | 30 | 30 | 40 | 90 | 10 | 70 | 90 | 90 | 20 | 80 | 10 | 30 | 80 | 80 | Barnyardgrass plant response rating [11]: 100; Plant response rating, Barnyardgrass ([11]; 500 g ai/ha): 100; Plant response rating, Ryegrass, Italian [12, 18]: 70; Plant response rating, Ryegrass, Italian [12, 19]: 70; Plant response rating, Wheat [13, 18]: 60; Plant response rating, Wheat [13, 19]: 70; Ragweed plant response rating [14]: 90; Plant response rating, Ragweed ([14]; 500 g ai/ha): 100; Ryegrass, Italian plant response rating [15]: 50; Plant response rating, Ryegrass, Italian ([15]; 500 g ai/ha): 100; Foxtail, Giant plant response rating [16]: 80; Plant response rating, Foxtail, Giant ([16]; 500 g ai/ha): 100
3 | Cc1cc(Cl)c(NS(=O)(=O)C(F)(F)F)cc1C(=O)N1CCSCC1 [Compound 26] | 20 | 70 | 50 | 90 | 10 | 40 | 0 | 30 | 0 | 50 | 0 | 20 | 70 | 90 | 80 | 90 | 0 | 10 | 50 | 100 | Barnyardgrass plant response rating [11]: 70; Plant response rating, Barnyardgrass ([11]; 500 g ai/ha): 100; Plant response rating, Ryegrass, Italian [12, 18]: 0; Plant response rating, Ryegrass, Italian [12, 19]: 0; Plant response rating, Wheat [13, 18]: 40; Plant response rating, Wheat [13, 19]: 60; Ragweed plant response rating [14]: 20; Plant response rating, Ragweed ([14]; 500 g ai/ha): 50; Ryegrass, Italian plant response rating [15]: 80; Plant response rating, Ryegrass, Italian ([15]; 500 g ai/ha): 100; Foxtail, Giant plant response rating [16]: 100; Plant response rating, Foxtail, Giant ([16]; 500 g ai/ha): 100
4 | Cc1cc(Cl)c(NS(=O)(=O)C(F)(F)F)cc1-c1cn(C)c(=O)n(C)c1=O [Compound 29] | 50 | 90 | 40 | 50 | 90 | 90 | 80 | 90 | 40 | 90 | 0 | 10 | 90 | 90 | 70 | 90 | 30 | 80 | 80 | 90 | Barnyardgrass plant response rating [11]: 40; Plant response rating, Barnyardgrass ([11]; 500 g ai/ha): 100; Plant response rating, Ryegrass, Italian [12, 18]: 70; Plant response rating, Ryegrass, Italian [12, 19]: 90; Plant response rating, Wheat [13, 18]: 70; Plant response rating, Wheat [13, 19]: 70; Ragweed plant response rating [14]: 60; Plant response rating, Ragweed ([14]; 500 g ai/ha): 90; Ryegrass, Italian plant response rating [15]: 90; Plant response rating, Ryegrass, Italian ([15]; 500 g ai/ha): 100; Foxtail, Giant plant response rating [16]: 100; Plant response rating, Foxtail, Giant ([16]; 500 g ai/ha): 100
5 | CCn1cc(-c2cc(N(S(=O)(=O)C(F)(F)F)S(=O)(=O)C(F)(F)F)c(C)cc2C)c(=O)n(C)c1=O [Compound 30] | 90 | 90 | 40 | 60 | 70 | 90 | 60 | 80 | 70 | 90 | 0 | 40 | 70 | 90 | 20 | 60 | 10 | 50 | 40 | 40 | Barnyardgrass plant response rating [11]: 90; Plant response rating, Barnyardgrass ([11]; 500 g ai/ha): 90; Plant response rating, Ryegrass, Italian [12, 18]: 40; Plant response rating, Ryegrass, Italian [12, 19]: 70; Plant response rating, Wheat [13, 18]: 60; Plant response rating, Wheat [13, 19]: 70; Ragweed plant response rating [14]: 20; Plant response rating, Ragweed ([14]; 500 g ai/ha): 40; Ryegrass, Italian plant response rating [15]: 90; Plant response rating, Ryegrass, Italian ([15]; 500 g ai/ha): 90; Foxtail, Giant plant response rating [16]: 80; Plant response rating, Foxtail, Giant ([16]; 500 g ai/ha): 100
